The values that follow come from US10022449B2, “Synergistic antiviral composition and use thereof” (priority 2009, dated 2018).

In data set [1] the test system is influenza A/PR/8/34 virus. Kind of data set: Mean weight of mice infected with lethal influenza virus, treatment starting 24 hours post infection (Example 2). It counts as in vivo, C57B16 mice. The following applies: treatment from 24 hours post infection; single actives: first seven days; combination: from day 3 onwards (pmax<0,004), t-test.
For data set [2], the system named is influenza A/PR/8/34 virus. Kind of data set: Survival of mice infected with lethal influenza virus, treatment starting 48 hours post infection (Example 1). The class given is in vivo, C57B16 mice. The following applies: lethal dose (10x LD50) i.n.; treatment from 48 hours post infection, twice daily; iota-carrageenan 1200 μg/ml 25 μl per nostril i.n.; TAMIFLU 10 mg/kg/d per os; 10 mice per group. As to the method:
(§1) 40 C57B16 mice were infected with a lethal dose (10× LD50) of influenza A/PR/8/34 virus by intranasal instillation (i.n.) without anaesthesia. After infection of the nasal cavity the virus spreads in the respiratory tract and finally causes a lethal pneumonia in mice. This model mimics the natural influenza infection in humans via the respiratory tract that sometimes causes severe conditions.
The mice were divided into four groups of 10 mice each. 48 hours post infection the mice were treated twice daily i.n. without anaesthesia, wherein the first group was treated with a placebo (25 μl 0.5% aqueous NaCl-solution per nostril) as a negative control and the second group was treated solely with 25 μl per nostril of a aqueous iota-carrageenan polymer solution at a concentration of 1200 μg/ml. Group three and four were fed with 10 mg/kg/d of TAMIFLU® per os, wherein the third group additionally received the iota-carrageenan polymer intranasally at the above concentration whereas the fourth group received the intranasal placebo treatment in addition to the oral Tamiflu® administration. […] The survival of the animals was determined daily as a surrogate parameter for health. The difference in the number of surviving animals was evaluated using a log-rank test.

The subject of a further data set is influenza virus. The following applies: cited from earlier work; for reduction of median time until detection of symptom alleviation: individuals of the YOPI group (young, old, pregnant, immunocompromised); for reduction of median time until detectable symptom alleviation: non-risk adults group (not YOPI).
The test system of data set [3] is influenza A/PR/8/34 virus. Kind of data set: Survival of influenza-infected mice, iota-carrageenan and oseltamivir, treatment starting 48 hours post infection (Example 3). The class given is in vivo. The following applies: treatment from 48 hours post infection, twice daily; oseltamivir 5 mg/kg/d orally; iota-carrageenan 1200 μg/ml i.n. (120 μg per day); 10 mice per group.
Text: as §1
The infection of the mice was done as described in Example 1. The mice were divided into four groups of 10 mice each. 48 hours post infection the mice were treated twice daily i.n. without anaesthesia, wherein the first group was treated with a placebo (25 μl 0.5% aqueous NaCl-solution per nostril) as a negative control, the second group was treated orally with oseltamivir at a dosage of 5 mg/kg/d, the third group was treated with 25 μl per nostril of an aqueous iota-carrageenan polymer solution at a concentration of 1200 μg/ml, and the fourth group was treated with a combination of iota-carrageenan and oseltamivir twice daily, wherein oseltamivir was administered orally at a dosage of 5 mg/kg/d and the total amount of iota-carrageenan administered intranasally was 100 μl corresponding to an amount of 120 μg per day. The survival of the animals was determined daily as a surrogate parameter for health. The difference in the number of surviving animals was evaluated using a log-rank test.

The conditions of data set [4]: cited from earlier work.
Data set [5] concerns influenza A/PR/8/34 virus. Description: Survival of influenza-infected mice, iota-/kappa-carrageenan and zanamivir, treatment starting 48 hours post infection (Example 4). It counts as in vivo. The following applies: treatment from 48 hours post infection; zanamivir 0.5 mg/kg/d intranasally; carrageenan polymer 120 μg per day intranasally; 20 mice per group.

Take `CCOC(=O)C1=C[C@@H](OC(CC)CC)[C@H](NC(C)=O)[C@@H](N)C1` [TAMIFLU®, oseltamivir phosphate]: the “weight loss compared to placebo treatment” value in data set [1] is on record as “failed to provide a significant benefit with regard to weight loss”. Moreover, the “survival of mice (survivors out of 10)” value in data set [2] is 3/10.

Regarding `CCOC(=O)C1=C[C@@H](OC(CC)CC)[C@H](NC(C)=O)[C@@H](N)C1` [oseltamivir], in the data set on influenza virus, the “reduction of median time until detection of symptom alleviation” value is given as 0.74 days and the “reduction of median time until detectable symptom alleviation” value is recorded as 0.55 days. The “survival of mice (survivors out of 10)” value in data set [3] is on record as 3/10.

With `CC(=O)N[C@H]1[C@H]([C@H](O)[C@H](O)CO)OC(C(=O)O)=C[C@@H]1N=C(N)N` [zanamivir], the Tmax in data set [4] (in vivo) was 1 to 2 h. In addition, the absolute bioavailability entry in data set [4] (orally administered, on average) was “about 2%”. In addition, in the data set on influenza virus, the “reduction of median time until detection of symptom alleviation” value is 0.98 days and the “reduction of median time until detectable symptom alleviation” value is recorded as 0.57 days. The “survival of mice (survivors out of 20)” value in data set [5] is reported as 7/20.
